Assay results reported in US5177102A, “Polyisoprene compounds and salts thereof” (Sanwa Kagaku Kenkyusho Co., Ltd., priority 1990, dated 1993).
Read-outs that look alike come from different tables or passages of the source.

System: stress-induced gastric ulcer
Assay: Anti-ulcer activity: water-immersion restraint stress-induced gastric ulcer in rats, oral (procedure of Takagi et al.)
Assay type: in vivo, Male Sprague-Dawley rats
Conditions: for ED50: read-out: ED50 (dose of test compound which gives 50% inhibition)
Experimental: Some polyisoprene compounds according to the invention were tested to evaluate their anti-ulcer activity in comparison with Teprenone and Gefarnate as controls, in accordance with the procedure proposed by Takagi et al ["Japan. J. Pharmacol.", Vol. 18, page 9 (1968)].
Male Sprague-Dawley rats were used, each having the body weight of 183.9 to 234.5 g. The animals were deprived of food for 24 hours prior to the test. They were immobilized in a restraint cage and immersed for 7 hours to the height of the xiphoid process in a water-bath kept at 23°±1° C. After inflation with 10 ml of 1% formalin, the isolated stomach was opened along the greater curvature. The ulcer index was determined as the sum of length (mm) of each erosion per rat. The compounds were administered orally 30 minutes before the restraint.
Results are shown in following Table 1 in terms of percent inhibition of anti-ulcer activity. In the Table, ED50 represents the dose of test compound which gives 50% inhibition.

[1] = oral, 30 minutes before restraint, rat, read-out: Inhibition (percent inhibition, ulcer index)
[2] = oral, 30 minutes before restraint, rat
[3] = Rattus norvegicus, po, read-out: Inhibition (percent inhibition, ulcer index)

With `CC(C)=CCCC(C)=CCCC(C)=CCCC(C)=CCCC(C)=CCCC(C)=CCCC(C)=CCCC(C)=CCCC(C)=CCSCCN` [Example 1, 2-(3,7,11,15,19,23,27,31,35-Nonamethyl-2,6,10,14,18,22,26,30,34-hexatriacontanonaen-1-ylthio)ethylamine] the inhibition in vivo at 12.5 mg/kg [1] was -3.1%, the inhibition in vivo at 25 mg/kg [1] was 39.7% and the inhibition in vivo at 50 mg/kg [1] was 55.1%. For the same compound, the ED50 [2] was 39.7 mg/kg.

With `CC(=CCSCCN)CCCC(C)CCCC(C)CCCC(C)C` (stereo not drawn) [Example 2, 2-(3,7,11,15-Tetramethyl-2-hexadecaen-1-ylthio)ethylamine] the inhibition in vivo at 12.5 mg/kg [1] was 9%, the inhibition in vivo at 25 mg/kg [1] was 45% and the inhibition in vivo at 50 mg/kg [1] was 69%. It also gave an ED50 [2] of 30.8 mg/kg.

With `CC(C)=CCCC(C)=CCSCCN` [Example 3, 2-(3,7-Dimethyl-2,6-octadien-1-ylthio)ethylamine] the inhibition in vivo at 50 mg/kg [1] was 13.3% and the ED50 [2] was greater than 50 mg/kg.

Compound `CC(C)=CCCC(C)=CCCC(C)=CCCC(C)=CCCC(C)=CCCC(C)=CCCC(C)=CCCC(C)=CCCC(C)=CCCC(C)=CCSCCN` [Example 4, 2-(3,7,11,15,19,23,27,31,35,39-Decamethyl-2,6,10,14,18,22,26,30,34,38-tetracontadecaen-1-ylthio)ethylamine] has an inhibition in vivo at 12.5 mg/kg [1] of 11.1%, an inhibition in vivo at 25 mg/kg [1] of 24.2% and an inhibition in vivo at 50 mg/kg [1] of 44.4%. The ED50 [2] was greater than 50 mg/kg.

`CC(C)=CCCC(C)=CCCC(C)=CCCC(C)=CCSCCN` [Example 5, 2-(3,7,11,15-Tetramethyl-2,6,10,14-hexadecatetraen-1-ylthio)ethylamine] was tested, and the inhibition in vivo at 12.5 mg/kg [1] was -2.8%, the inhibition in vivo at 25 mg/kg [1] was 57.4% and the inhibition in vivo at 50 mg/kg [1] was 88%. For the same compound, the ED50 [2] was 21.1 mg/kg.

`CC(C)=CCCC(C)=CCCC(C)=CCSCCN` [Example 6, 2-(3,7,11-Trimethyl-2,6,10-dodecatrien-1-ylthio)ethylamine] showed an inhibition in vivo at 50 mg/kg [1] of 15.4% and an ED50 [2] greater than 50 mg/kg.

`CNC(=C[N+](=O)[O-])NCCSCC=C(C)CCC=C(C)CCC=C(C)CCC=C(C)C` [Example 7, 2-Methylamino-1-nitro-2-[2-(3,7,11,15-tetramethyl-2,6,10,14-hexadecatetraen-1-ylthio)ethylamino]ethylene] showed an inhibition in vivo at 12.5 mg/kg [1] of -7%, an inhibition in vivo at 25 mg/kg [1] of 23.8% and an inhibition in vivo at 50 mg/kg [1] of 67.8%. For the same compound, the ED50 [2] was 37.4 mg/kg.

Compound `CC(C)=CCCC(C)=CCCC(C)=CCCC(C)=CCCC(C)=CCCC(C)=CCCC(C)=CCCC(C)=CCCC(C)=CCCC(C)=CCNCC12CCCN1CCC2` [Example 8, 5-{[(3,7,11,15,19,23,27,31,35,39-Decamethyl-2,6,10,14,18,22,26,30,34,38-tetracontadecaen-1-yl)amino]methyl}-1-azabicyclo[3.3.0]octane] has an inhibition in vivo at 50 mg/kg [1] of 10.3% and an ED50 [2] greater than 50 mg/kg.

`CC(C)=CCCC(C)=CCCC(C)=CCCC(C)=CCNCC12CCCN1CCC2` [Example 9, 5-{[(3,7,11,15-Tetramethyl-2,6,10,14-hexadecatetraen-1-yl)amino]methyl}-1-azabicyclo[3.3.0]octane] was tested, and the inhibition in vivo at 12.5 mg/kg [1] was 38.4%, the inhibition in vivo at 25 mg/kg [1] was 67.9% and the inhibition in vivo at 50 mg/kg [1] was 84.9%. The ED50 [2] was 16.6 mg/kg.

Compound `CC(C)=CCCC(C)=CCCC(C)=CCCC(C)=CCCC(C)=CCCC(C)=CCCC(C)=CCCC(C)=CCCC(C)=CCCC(C)=CCSCCNC(=O)CC12CCCN1CCC2` [Example 10, N-[2-(3,7,11,15,19,23,27,31,35,39-Decamethyl-2,6,10,14,18,22,26,30,34,38-tetracontadecaen-1-ylthio)ethyl]-(1-azabicyclo[3.3.0]octan-5-yl)acetamide] has an inhibition in vivo at 12.5 mg/kg [1] of 27.3%, an inhibition in vivo at 25 mg/kg [1] of 33.9% and an ED50 [2] greater than 50 mg/kg.

`CC(C)=CCCC(C)=CCCC(C)=CCCC(C)=CCSCCNC(=O)CC12CCCN1CCC2` [Example 11, N-[2-(3,7,11,15-Tetramethyl-2,6,10,14-hexadecatetraen-1-ylthio)ethyl]-(1-azabicyclo[3.3.0]octan-5-yl)acetamide] was tested, and the inhibition in vivo at 12.5 mg/kg [1] was 9.4%, the inhibition in vivo at 25 mg/kg [1] was 51% and the inhibition in vivo at 50 mg/kg [1] was 68.5%. For the same compound, the ED50 [2] was 26 mg/kg.

`CC(C)=CCCC(C)=CCCC(C)=CCCC(C)=CCN(CC=C(C)CCC=C(C)CCC=C(C)CCC=C(C)C)CC12CCCN1CCC2` [Example 12, 5-{[Bis(3,7,11,15-tetramethyl-2,6,10,14-hexadecatetraen-1-yl)amino]methyl}-1-azabicyclo[3.3.0]octane] showed an inhibition in vivo at 12.5 mg/kg [1] of 21.5%, an inhibition in vivo at 25 mg/kg [1] of 50% and an ED50 [2] of no less than 25 mg/kg.

With `CC(C)=CCC/C(C)=C/CC/C(C)=C/CCC(=O)OC/C=C(\C)CCC=C(C)C` [Gefarnate, reference compound] the ED50 (Rattus norvegicus, po) was 387 mg/kg, the inhibition in vivo at 100 mg/kg [3] was 24.6% and the inhibition in vivo at 200 mg/kg [3] was 19.2%. The inhibition in vivo at 400 mg/kg [3] was 51.5%.

`CC(=O)CCC=C(C)CCC=C(C)CCC=C(C)CCC=C(C)C` [Teprenone, reference compound] showed an inhibition in vivo at 25 mg/kg [1] of 0%, an inhibition in vivo at 50 mg/kg [1] of 9.4% and an inhibition in vivo at 100 mg/kg (100 mg/kg, oral, 30 minutes before restraint, rat, read-out: Inhibition (percent inhibition, ulcer index)) of 48.3%. For the same compound, the ED50 [2] was greater than 100 mg/kg.
